Results reported in US20130085161A1, “PIPERIDINYL SUBSTITUTED 1,3-DIHYDRO-BENZOIMIDAZOL-2-YLIDENEAMINE DERIVATIVES” (NOVARTIS AG, priority 2010, published 2013).

Target: T1, BaF3-Tel-IGF1-R (Homo sapiens, UniProt P08069)
T1 construct: the kinase domain of IGF-1R (aa 976-1367) linked by a Ser-Arg-linker; expressed in transfected cells; host or cells: BaF3 murine proB-cell lymphoma cells, stably transduced
Assay: BaF3 cell viability assay (resazurin), 384-well format
Type: cell-based
Conditions: 384-well plate format; 48 h incubation; resazurin dye reduction; cell proliferation/viability
Excerpt: (§1) BaF3-Tel-IGF1-R and BaF3-InsR are BaF3 murine proB-cell lymphoma cell derivatives [the BaF3 cell line (also termed Ba/F3) is available from the German Collection of Microorganisms and Cell Cultures (DSMZ), Braunschweig, Germany] that have been rendered IL-3-independent by stable transduction with kinase-activating fusions between human TEL (aa 1-452) and the kinase domain of IGF-1R (aa 976-1367) linked by a Ser-Arg-linker (Boulay et al, Cancer Res 68, 3743-3751, 2008), and a fusion between human TEL (aa 1-337) and the kinase domain (aa 1015-1382) of the Insulin receptor (Melnick J S et al, Proc Natl Acad Sci USA 103, 3153-3158, 2006), respectively. Cells are cultured in RPMI-1640 (Animed #1-14F01-1) supplemented with 2% L-glutamine (Animed #5-10K50-H) and 10% fetal calf serum (FCS, Animed #2-01F16-I). Wild-type, untransfected BaF3 cells are maintained in above medium plus 10 U/ml IL-3 (mouse Interleukin-3, Roche #1380745 or Invitrogen # PMC0035) and are used to identify non-selective, generally growth-inhibitory compounds. Cells (1.5×10^4 cells per well) are seeded in 190 μl fresh medium into 96-well plates. 10 μl 20× compound solutions are added. As internal control, the kinase inhibitor PKC412 is routinely used. Control cells treated with DMSO (0.1% final concentration) serve as growth reference (set as 100% growth). In addition, a plate blank value is routinely determined in a well containing only […] of medium and no cells. IC50 determinations are performed based on eight 3-fold serial dilutions of the test compound, starting at 10 μM. Following incubation of the cells for 48 h at 37° C. and 5% CO2, the effect of inhibitors on cell viability is assessed by the resazurin sodium salt dye reduction assay (commercially known as AlamarBlue assay) basically as previously described (O'Brien J. et al., Eur. J. Biochem. 267: 5421-5426, 2000). Briefly, 20 μl dye solution is added per well and the plates incubated for 6 h at 37° C. and 5% CO2. Thereafter, fluorescence is measured using a Saphirell 96-well plate reader (TECAN, Männedorf, Switzerland) with the following settings: Excitation 544 nm and Emission 590 nm. For data analysis, the plate blank value is subtracted from all data points. The effect of a particular test compound concentration on cell proliferation and viability is expressed as percentage of the blank-corrected reading obtained for cells treated with vehicle only, which is set as 100%. IC50 values can be determined using XLfit (V4.2), applying standard four parameter logistic model #205 (IDBS, Guilford, UK) or other common curve-fitting software.
To achieve a higher throughput, the cell viability assay can also be performed in a 384-well format. Briefly, 4′500 freshly diluted cells are seeded in 54 μl/well into 384-well plates using a liquid dispenser. 6 μl 10× compound solution is added to the cell plate. As internal control, the kinase inhibitor PKC412 is routinely used. Control cells treated with DMSO (0.1% final concentration) serve as growth reference (set as 100% growth). In addition, a plate blank value is routinely determined in a well containing only 60 μl of medium and no cells. Dose-response effects are determined by 3-fold serial compound dilutions, starting at 10 μM. Following incubation of the cells for 48 h at 37° C. and 5% CO2, the effect of compounds on cell proliferation/viability is assessed by addition of 6 μl resazurin sodium salt dye solution per well. Following incubation for an additional 6 hrs at 37° C. and 5% CO2, fluorescence is measured using an Infiniti M1000 microplate reader (TECAN, Männedorf, Switzerland) with excitation and emission wavelengths set at 544 and 590 nm, respectively. For data analysis, the plate blank value is subtracted from all data points. IC50 values can be determined by four parameter logistic fitting as described above.

T1 sequence (P08069 976-1367): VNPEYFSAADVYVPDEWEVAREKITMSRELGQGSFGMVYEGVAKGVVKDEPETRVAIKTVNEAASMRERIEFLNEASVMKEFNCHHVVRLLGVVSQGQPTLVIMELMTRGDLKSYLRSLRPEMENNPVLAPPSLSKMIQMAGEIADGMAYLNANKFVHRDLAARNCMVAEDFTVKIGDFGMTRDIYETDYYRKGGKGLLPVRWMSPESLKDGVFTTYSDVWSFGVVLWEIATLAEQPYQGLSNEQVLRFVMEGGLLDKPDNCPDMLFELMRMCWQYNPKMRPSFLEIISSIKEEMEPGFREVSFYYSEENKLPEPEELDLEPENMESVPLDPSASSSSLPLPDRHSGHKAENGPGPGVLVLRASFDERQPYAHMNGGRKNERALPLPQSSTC

Structure (SMILES)	IC50 [nM]
CC(=O)Nc1ccccc1N1CCC(n2c(=N)n(Cc3ccccc3Cl)c3ccccc32)CC1 [Example 56.6, N-(2-{4-[3-(2-Chloro-benzyl)-2-imino-2,3-dihydro-benzoimidazol-1-yl]-piperidin-1-yl}-phenyl)-acetamide]	148
COc1ccc(NC(C)=O)c(N2CCC(n3c(=N)n(Cc4cccc5[nH]ccc45)c4ccc(F)cc43)CC2)c1 [Example 56.13, N-(2-{4-[6-Fluoro-2-imino-3-(1H-indol-4-ylmethyl)-2,3-dihydro-benzoimidazol-1-yl]-piperidin-1-yl}-4-methoxy-phenyl)-acetamide]	9
CC(=O)Nc1ccc(C(F)(F)F)cc1N1CCC(n2c(=N)n(Cc3cccc4[nH]nnc34)c3ccc(F)cc32)CC1 [Example 56.14, N-(2-{4-[3-(1H-Benzotriazol-4-ylmethyl)-6-fluoro-2-imino-2,3-dihydro-benzoimidazol-1-yl]-piperidin-1-yl}-4-trifluoromethyl-phenyl)-acetamide]	23
CC(=O)Nc1ccc(C)cc1N1CCC(n2c(=N)n(Cc3cccc4[nH]ccc34)c3ccc(F)cc32)CC1 [Example 56.15, N-(2-{4-[6-Fluoro-2-imino-3-(1H-indol-4-ylmethyl)-2,3-dihydro-benzoimidazol-1-yl]-piperidin-1-yl}-4-methyl-phenyl)-acetamide]	41
CC(=O)Nc1ccc(C(F)(F)F)cc1N1CCC(n2c(=N)n(Cc3cccc4[nH]ccc34)c3ccc(F)cc32)CC1 [Example 56.16, N-(2-{4-[6-Fluoro-2-imino-3-(1H-indol-4-ylmethyl)-2,3-dihydro-benzoimidazol-1-yl]-piperidin-1-yl}-4-trifluoromethyl-phenyl)-acetamide]	39
CC(=O)Nc1ccc(C(F)(F)F)cc1N1CCC(n2c(=N)n(Cc3ccccc3Cl)c3ccc(F)cc32)CC1 [Example 56.17, N-(2-{4-[3-(2-Chloro-benzyl)-6-fluoro-2-imino-2,3-dihydro-benzoimidazol-1-yl]-piperidin-1-yl}-4-trifluoromethyl-phenyl)-acetamide]	38
CC(=O)Nc1ccccc1N1CCC(n2c(=N)n(Cc3ccccc3Cl)c3ccc(F)cc32)CC1 [Example 56.18, N-(2-{4-[3-(2-Chloro-benzyl)-6-fluoro-2-imino-2,3-dihydro-benzoimidazol-1-yl]-piperidin-1-yl}-phenyl)-acetamide]	119
CC(=O)Nc1ccccc1N1CCC(n2c(=N)n(Cc3cccc4[nH]ccc34)c3ccc(F)cc32)CC1 [Example 56.19, N-(2-{4-[6-Fluoro-2-imino-3-(1H-indol-4-ylmethyl)-2,3-dihydro-benzoimidazol-1-yl]-piperidin-1-yl}-phenyl)-acetamide]	382
CC(=O)Nc1ccc(Cl)cc1N1CCC(n2c(=N)n(Cc3cccc4[nH]ccc34)c3ccccc32)CC1 [Example 57]	15
CC(=O)Nc1ccc(Cl)cc1N1CCC(n2c(=N)n(Cc3ccccc3Cl)c3ccccc32)CC1 [Example 58, N-(4-Chloro-2-{4-[3-(2-chloro-benzyl)-2-imino-2,3-dihydro-benzoimidazol-1-yl]-piperidin-1-yl}-phenyl)-acetamide]	37
CC(=O)/N=c1\n(Cc2ccccc2Cl)c2ccccc2n1C1CCN(c2cc(Cl)ccc2NC(C)=O)CC1 [Example 59, N-(2-{4-[2-Acetylimino-3-(2-chloro-benzyl)-2,3-dihydro-benzoimidazol-1-yl]-piperidin-1-yl}-4-chloro-phenyl)-acetamide]	407
CC(=O)Nc1ccc(Cl)cc1N1CCC(n2c(=N)n(Cc3cccc4[nH]nnc34)c3ccccc32)CC1 [Example 60, N-(2-{4-[3-(1H-Benzotriazol-4-ylmethyl)-2-imino-2,3-dihydro-benzoimidazol-1-yl]-piperidin-1-yl}-4-chloro-phenyl)-acetamide]	64
CC(=O)Nc1ccc(Cl)cc1N1CCC(n2c(=N)n(Cc3cccc4[nH]ccc34)c3ccc(F)cc32)CC1 [Example 61, N-(4-Chloro-2-{4-[6-fluoro-2-imino-3-(1H-indol-4-ylmethyl)-2,3-dihydro-benzoimidazol-1-yl]-piperidin-1-yl}-phenyl)-acetamide]	8
CC(=O)Nc1ccc(Cl)cc1N1CCC(n2c(=N)n(Cc3ccccc3Cl)c3ccc(F)cc32)CC1 [Example 62, N-(4-Chloro-2-{4-[3-(2-chloro-benzyl)-6-fluoro-2-imino-2,3-dihydro-benzoimidazol-1-yl]-piperidin-1-yl}-phenyl)-acetamide]	36
CC(=O)Nc1ccc(Cl)cc1N1CCC(n2c(=N)n(Cc3cccc4[nH]nnc34)c3ccc(F)cc32)CC1 [Example 63, N-(2-{4-[3-(1H-Benzotriazol-4-ylmethyl)-6-fluoro-2-imino-2,3-dihydro-benzoimidazol-1-yl]-piperidin-1-yl}-4-chloro-phenyl)-acetamide]	22
CC(=O)Nc1ccc(Cl)cc1N1CCC(n2c(=N)n(Cc3cccc4[nH]cnc34)c3ccc(F)cc32)CC1 [Example 64, N-(2-{4-[3-(1H-Benzoimidazol-4-ylmethyl)-6-fluoro-2-imino-2,3-dihydro-benzoimidazol-1-yl]-piperidin-1-yl}-4-chloro-phenyl)-acetamide]	163
CC(=O)Nc1ccc(C)nc1N1CCC(n2c(=N)n(Cc3cccc4[nH]ccc34)c3ccc(F)cc32)CC1 [Example 65, N-{4-[6-Fluoro-2-imino-3-(1H-indol-4-ylmethyl)-2,3-dihydro-benzoimidazol-1-yl]-6′-methyl-3,4,5,6-tetrahydro-2H-[1,2′]bipyridinyl-3′-yl}-acetamide]	5
CC(=O)/N=c1\n(Cc2cccc3[nH]ccc23)c2ccccc2n1C1CCN(c2cc(C)ccc2NC(C)=O)CC1 [Example 66, N-(2-{4-[2-Acetylimino-3-(1H-indol-4-ylmethyl)-2,3-dihydro-benzoimidazol-1-yl]-piperidin-1-yl}-4-methyl-phenyl)-acetamide]	180
CC(=O)Nc1ccc(Cl)nc1N1CCC(n2c(=N)n(Cc3ccccc3Cl)c3ccc(F)cc32)CC1 [Example 77, N-{6′-Chloro-4-[3-(2-chloro-benzyl)-6-fluoro-2-imino-2,3-dihydro-benzoimidazol-1-yl]-3,4,5,6-tetrahydro-2H-[1,2′]bipyridinyl-3′-yl}-acetamide]	68
CC(=O)Nc1ccc(C)nc1N1CCC(n2c(=N)n(Cc3ccccc3Cl)c3ccc(F)cc32)CC1 [Example 78, N-{4-[3-(2-Chloro-benzyl)-6-fluoro-2-imino-2,3-dihydro-benzoimidazol-1-yl]-6′-methyl-3,4,5,6-tetrahydro-2H-[1,2′]bipyridinyl-3′-yl}-acetamide]	62

Target: T1, BaF3-Tel-IGF1-R
Assay: BaF3 cell viability assay (resazurin/AlamarBlue), 96-well format
Type: cell-based
Conditions: 96-well plate format; 48 h incubation; resazurin dye reduction; cell proliferation/viability
Excerpt: as §1, with “10 μl 20× compound solutions are added. As internal control, the kinase inhibitor PKC412 is routinely used. Control cells treated with DMSO (0.1% final concentration) serve as growth reference (set as 100% growth).” left out, “IC50 determinations are performed based on eight 3-fold serial dilutions of the test compound, starting at 10 μM.” left out, “Briefly, 20 μl dye solution is added per well and the plates incubated for 6 h at 37° C. and 5% CO2.” left out, “For data analysis, the plate blank value is subtracted from all data points.” left out

Structure (SMILES)	IC50 [nM]
Cc1cccc(N2CCC(n3c(=N)n(Cc4ccccc4Cl)c4ccccc43)CC2)c1 [Example 54, 1-(2-Chloro-benzyl)-3-(1-m-tolyl-piperidin-4-yl)-1,3-dihydro-benzoimidazol-2-ylideneamine]	405
Cc1cccc(N2CCC(n3c(=N)n(Cc4cc(F)ccc4Cl)c4ccccc43)CC2)c1 [Example 55, 1-(2-Chloro-5-fluoro-benzyl)-3-(1-m-tolyl-piperidin-4-yl)-1,3-dihydro-benzoimidazol-2-ylideneamine]	288
CC(=O)Nc1ccccc1N1CCC(n2c(=N)n(Cc3ccccc3Cl)c3ccccc32)CC1 [Example 56.6, N-(2-{4-[3-(2-Chloro-benzyl)-2-imino-2,3-dihydro-benzoimidazol-1-yl]-piperidin-1-yl}-phenyl)-acetamide]	93
